{"source": "patent US6458357B1", "about": "“Retro-inverso neurotrophic and analgesic peptides” (Myelos Corporation, priority 1997, dated 2002)", "molecules": {"B1": {"name": "saposin C: small heat-stable glycoprotein generated by proteolytic processing of prosaposin (protein, UniProt P07602 311-390, looked up)", "Saposin-C": "SDVYCEVCEFLVKEVTKLIDNNKTEKEILDAFDKMCSKLPKSLSEECQEVVDTYGSSILSILLEEVSPELVCSMLHLCSG", "modifications": "Saposin-C"}}, "key": {"[1]": {"assay": "Integrity (intactness) of peptide D4 in organs by HPLC 60 minutes after injection", "type": "in vivo, rat", "procedure": "In another study, an aliquot of brain, liver, lung and kidney was taken 60 minutes after injection for HPLC analyses (Vydac C4 column) to determine the integrity (intactness) of the peptide in brain, blood and kidney. Peptide D4 was 95% intact in these organs, indicating the in vivo stability of this peptide after 60 minutes. The peak at 16 min. is intact D4; a breakdown product peak is evident at 4 min."}, "[2]": {"assay": "Localization of 125I-labelled peptide D4 in organs after intramuscular injection", "quoted_text": "After 20 min., the rat was anesthetized, perfused with PBS and the organs removed and counted in a gamma counter."}, "[3]": {"tested_on": "mouse cerebellar explants", "conditions": "cited from earlier work"}, "neuroblastoma cells [4]": {"tested_on": "neuroblastoma cells", "conditions": "cited from earlier work"}, "neuroblastoma cells [5]": {"tested_on": "neuroblastoma cells", "conditions": "neuroblastoma cells in vitro; cited from earlier work"}, "[6]": {"tested_on": "choline acetyltransferase activity", "conditions": "neuroblastoma cells in vitro; cited from earlier work"}, "[7]": {"tested_on": "NS20Y neuroblastoma cells", "assay": "NS20Y neuroblastoma neurite outgrowth assay", "type": "cell-based", "conditions": "for neurite outgrowth (neuritogenic activity): 0.5-8 ng/ml peptide, 24 hours, DMEM 0.5% FCS", "procedure": "NS20Y neuroblastoma cells were grown in DMEM containing 10% fetal calf serum (FCS). Cells were removed with trypsin and plated in 30 mm petri dishes onto glass coverslips. After 20-24 hours, the medium was replaced with 2 ml DMEM containing 0.5% FCS plus 0, 0.5, 1, 2, 4 or 8 ng/ml effector peptides. Cells were cultured for an additional 24 hours, washed with PBS and fixed with Bouin's solution (saturated aqueous picric acid/formalin/acetic acid 15:5:1) for 30 minutes. Fixative was removed with PBS and neurite outgrowth was scored under a phase contrast microscope. […] At least 200 cells were scored in different portions of each dish to determine the percentage of neurite bearing cells and assays were performed in duplicate.\nIncreased neurite outgrowth was evident using as little as 0.5 ng/ml peptide."}, "[8]": {"tested_on": "NS20Y neuroblastoma cells", "assay": "Cell death assay, trypan blue staining of NS20Y cells in low serum", "type": "cell-based", "conditions": "for reduction of the number of trypan blue-positive (dead) cells: NS20Y cells, 8 ng/ml peptide, 2 days in 0.5% fetal bovine serum; for prevention of cell death: neuroblastoma cells in culture", "procedure": "NS20Y cells were plated as described in Example 1 and grown on glass coverslips in 0.5% fetal bovine serum for 2 days in the presence or absence of 8 ng/ml effector peptides. Media was removed and 0.2% trypan blue in PBS was added to each well. Blue-staining dead cells were scored as a percentage of the total on an inverted microscope, counting 400 cells in four areas of each well. The average error of duplicates was ±5%."}, "neurite outgrowth": {"tested_on": "neurite outgrowth", "conditions": "system not specified; cited from earlier work"}, "[9]": {"conditions": "in vivo; cited from earlier work"}, "[10]": {"tested_on": "newborn mouse cerebellar explants", "assay": "Ex vivo myelination assay in newborn mouse cerebellar explants", "type": "cell-based", "conditions": "added on second day, observed for 22 days in culture; saposin C positive control 1-10 μg/ml", "procedure": "Newborn mouse cerebellar explants are prepared according to Satomi (Zool. Sci. 9:127-137, 1992). Neurite outgrowth and myelination are observed for 22 days in culture, during the period when the newborn mouse cerebellum normally undergoes neuronal differentiation and myelination begins. D2, D3, D4, D5 or another peptide including SEQ ID NO: 12 is added on the second day after preparation of the explants (three control and three treated explants) and outgrowth of neurites and myelination are assessed under a bright field microscope with a video camera. Saposin C is used as a positive control at a concentration of between about 1 and 10 μg/ml."}}, "note": "“Also recorded” adds a separate entry of the source. Where a SMILES comes first, the peptide text is derived from it. Where no end group is shown, it is not given here. [ ]: non-standard residue; d: D form."}
{"molecule": "CC(C)C[C@@H](NC(=O)[C@@H](CC(C)C)NC(=O)[C@@H](CC(=O)O)NC(=O)[C@@H](CC(N)=O)NC(=O)[C@@H](CC(N)=O)NC(=O)[C@@H](C)NC(=O)[C@H](NC(=O)[C@@H](CCC(=O)O)NC(=O)[C@@H](CCC(=O)O)NC(=O)[C@@H](CC(C)C)NC(=O)[C@@H](CC(C)C)NC(=O)[C@H](N)Cc1ccc(O)cc1)[C@H](C)O)C(=O)O", "note": "[peptide D4] (H-[dY][dL][dL][dE][dE][dT][dA][dN][dN][dD][dL][dL]-OH; N-terminus and C-terminus assumed)", "values": [{"measurement": "in vivo stability", "setting": "[1]; 60 minutes after injection", "value": "stable in vivo"}, {"measurement": "crossing of the blood brain barrier", "setting": "[1]; after intramuscular injection, rat", "value": "crosses the blood brain barrier in amounts sufficient to exert a therapeutic effect"}, {"measurement": "presence of peptide in the brain", "setting": "[2]; after intramuscular injection into a rat", "value": "significant amounts"}, {"measurement": "concentration in brain relative to required neurotrophic dose for neural cells determined in vitro", "setting": "[2]; brain, 20 min after 200 μg/kg intramuscular, rat", "value": "approximately 20 times"}]}
{"molecule": "22-mer: CEFLVKEVTKLIDNNKTEKEIL; SEQ ID NO: 1; amino acids 8-29 of human saposin C (Homo Sapien)", "values": [{"measurement": "neurite outgrowth", "setting": "[3]", "value": "stimulates neurite outgrowth"}, {"measurement": "neurite outgrowth", "setting": "neuroblastoma cells [4]", "value": "stimulates neurite outgrowth"}, {"measurement": "prevention of cell death", "setting": "neuroblastoma cells [5]", "value": "prevented cell death"}, {"measurement": "choline acetyltransferase activity", "setting": "[6]", "value": "stimulates choline acetyltransferase activity"}]}
{"molecule": "TX14(A): TXLIDNNATEEILY, X=D-alanine; SEQ ID NO: 4; modified 15-mer of human saposin C (T[dA]LIDNNATEEILY) [TX…, X=D-alanine; modified 15-mer of human saposin C, reference compound]", "values": [{"measurement": "neurite outgrowth (neuritogenic activity)", "setting": "[7]", "value": "exhibited neuritogenic activity; also recorded: induced neurite outgrowth"}, {"measurement": "reduction of the number of trypan blue-positive (dead) cells", "setting": "[8]", "value": "about 50%"}, {"measurement": "prevention of cell death", "setting": "[8]", "value": "prevented cell death in neuroblastoma cells in culture to the same extent"}]}
{"molecule": "18-mer: YKEVTKLIDNNKTEKEIL; SEQ ID NO: 2; within the active 22-mer of saposin C, V replaced by Y (Homo Sapien)", "values": [{"measurement": "neurite outgrowth", "setting": "neurite outgrowth", "value": "promotes neurite outgrowth"}, {"measurement": "crossing of the blood-brain barrier", "setting": "[9]", "value": "crosses the blood brain barrier; also recorded: able to cross the blood-brain barrier"}]}
{"molecule": "rat 14-mer: rat 14-mer derived from the saposin C active sequence, SELIINNATEELLY; SEQ ID NO: 6 (Homo Sapien) [reference compound]", "values": [{"measurement": "neurite outgrowth (neuritogenic activity)", "setting": "[7]", "value": "induced neurite outgrowth"}]}
{"molecule": "D3: retro-inverso peptide YLEETANNDLLAT; SEQ ID NO: 11 ([dY][dL][dE][dE][dT][dA][dN][dN][dD][dL][dL][dA][dT]; also: retro-inverso)", "values": [{"measurement": "neurite outgrowth (neuritogenic activity)", "setting": "[7]", "value": "promoted neurite outgrowth in vitro"}, {"measurement": "stimulation of myelination", "setting": "[10]", "value": "to a similar extent as with saposin C"}]}
{"molecule": "peptide D2: YLIEETANNDILAT, all D-amino acids; SEQ ID NO: 5; retro-inverted TX14(A) ([dY][dL][dI][dE][dE][dT][dA][dN][dN][dD][dI][dL][dA][dT]; also: retro-inverted)", "values": [{"measurement": "neurite outgrowth activity compared with TX14(A)", "setting": "[7]", "value": "slightly more active that TX14(A); also recorded: slightly more effective than TX14(A)"}, {"measurement": "neurite outgrowth (neuritogenic activity)", "setting": "[7]", "value": "exhibited neuritogenic activity; also recorded: induced neurite outgrowth"}, {"measurement": "stimulation of myelination", "setting": "[10]", "value": "to a similar extent as with saposin C"}, {"measurement": "reduction of the number of trypan blue-positive (dead) cells", "setting": "[8]", "value": "about 50%"}, {"measurement": "prevention of cell death", "setting": "[8]", "value": "prevented cell death in neuroblastoma cells in culture to the same extent"}]}
{"molecule": "B1", "values": [{"measurement": "myelination", "setting": "neurite outgrowth", "value": "promote increased myelination"}, {"measurement": "neurite outgrowth", "setting": "neurite outgrowth", "value": "stimulate neurite outgrowth"}]}
